Experimental data published in patent publication US20250277012A1 (Protagonist Therapeutics, Inc., priority 2021, published 2025).
Read-outs that look alike come from different tables or passages of the source. Positions of bridges follow the written chain, without caps; N, C: chain ends. Non-standard residues stand in square brackets, D forms with d. Residues, ends and D or L forms follow the SMILES beside them. Groups on a side chain read outwards from the residue. *: point of attachment. CH3O(CH2CH2O)11CH2CH2CO = COCCOCCOCCOCCOCCOCCOCCOCCOCCOCCOCCOCCC(=O)*; X1 = C[N+](C)(CCNC(=O)CCCCCCCCCCCCCCCCC(=O)O)CC(=O)*; X5 = CCCCCCCCCCCCCCCC(=O)NCC[N+](C)(C)CC(=O)*; C18 diacid = O=C(O)CCCCCCCCCCCCCCCCC(=O)*; Dip = N[C@H](C(=O)O)C(c1ccccc1)c1ccccc1; NHCH2CHPh2 = c1ccc(C(CN*)c2ccccc2)cc1; NMeY = CN[C@@H](Cc1ccc(O)cc1)C(=O)O; Palmitoyl = CCCCCCCCCCCCCCCC(=O)*; NMeI = CC[C@H](C)[C@H](NC)C(=O)O; β3hF = N[C@H](CC(=O)O)Cc1ccccc1; NMeK = CN[C@@H](CCCCN)C(=O)O; Isovaleryl = CC(C)CC(=O)*; hCys = N[C@@H](CCS)C(=O)O; Dap = NC[C@H](N)C(=O)O; AEEA = NCCOCCOCC(=O)O; Ahx = NCCCCCC(=O)O

Assays:
[1] = biological target: T1, ferroportin (Homo sapiens, UniProt Q9NP59); experiment: FPN activity assay: ferroportin-GFP internalization/degradation in HEK293 cells; type: cell-based; parameters: expressed in transfected cells; conditions: read-out: FPN IC50
T1 sequence (Q9NP59 1-571): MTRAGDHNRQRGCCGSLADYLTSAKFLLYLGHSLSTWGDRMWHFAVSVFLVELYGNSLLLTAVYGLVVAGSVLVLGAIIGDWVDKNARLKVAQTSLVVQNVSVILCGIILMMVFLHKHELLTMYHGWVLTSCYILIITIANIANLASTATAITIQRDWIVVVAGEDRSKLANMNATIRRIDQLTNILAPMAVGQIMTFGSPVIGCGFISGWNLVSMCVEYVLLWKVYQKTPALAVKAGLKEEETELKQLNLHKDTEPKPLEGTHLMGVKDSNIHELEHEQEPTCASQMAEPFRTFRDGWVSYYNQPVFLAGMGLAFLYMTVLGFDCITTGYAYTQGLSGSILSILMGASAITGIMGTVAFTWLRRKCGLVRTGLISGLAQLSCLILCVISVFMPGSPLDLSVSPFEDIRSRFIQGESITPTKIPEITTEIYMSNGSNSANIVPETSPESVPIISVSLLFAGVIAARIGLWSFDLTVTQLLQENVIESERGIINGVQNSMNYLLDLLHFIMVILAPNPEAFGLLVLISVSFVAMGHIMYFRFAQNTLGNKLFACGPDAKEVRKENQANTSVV
Protocol: Following internalization, the ferroporin protein is degraded.
A retro inverse peptide is a peptide with a reversed sequence in all D amino acids. An example is that Hy-Glu-Thr-His-NH2 becomes Hy-DHis-DThr-DGlu-NH2. The EC50 of these reference compounds for ferroportin internalization/degradation was determined according to the FPN activity assay described above. These peptides served as control standards.

[2] = biological target: T1, ferroportin; experiment: T47D cell-based ferroportin internalization assay in presence of mouse serum albumin (MSA); parameters: a human breast carcinoma adherent cell line which endogenously expresses ferroportin; host or cells: T47D
How it was run: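 Peptide potency for inducing ferroportin internalization was measured in T47D cells in the presence of serum albumin. Cells grown in RPMI with fetal bovine serum were seeded in 96-well plates at 80-100 k cells per well in 100 ul and rested overnight. Dilution series of test peptides were preincubated 30 min at room temperature, then added to the cells after the medium was aspirated.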

[3] = ferroportin-GFP internalization/degradation, HEK293 cells, Table 6E
[4] = T47D internalization assay in presence of mouse serum albumin (MSA), Table 6E
[5] = Table 6E, ferroportin-GFP internalization/degradation, at least 18 hours incubation
[6] = Table 6E, T47D internalization assay with MSA

## COCCOCCOCCOCCOCCOCCOCCOCCOCCOCCOCCOCCC(=O)NCCCC[C@@H](NC(=O)C[C@H](Cc1ccccc1)NC(=O)[C@H](CCCCNC(=O)COCCOCCNC(=O)COCCOCCNC(=O)[C@H](CN)NC(=O)CCCCCCCCCCCCCCCCC(=O)O)N(C)C(=O)[C@@H]1CSSC[C@H](NC(=O)[C@@H]2CCCN2C(=O)[C@@H](NC(=O)[C@H](Cc2c[nH]cn2)NC(=O)[C@@H](NC(=O)[C@H](CCC(=O)OC)NC(=O)CC(C)C)[C@@H](C)O)C(c2ccccc2)c2ccccc2)C(=O)N1)C(N)=O [compound 254] (Isovaleryl-E(OMe)TH[Dip]PCC[NMeK]([AEEA-AEEA-Dap-C18 diacid])[β3hF][dK](CH3O(CH2CH2O)11CH2CH2CO)-NH2; disulfide 6-7)
[1]; [3]
  DC50: 10 to 100 nM
[2]; [4]
  IC50: 10 to 100 nM

## CCCCCCCCCCCCCCCC(=O)NCC[N+](C)(C)CC(=O)NCCCC[C@@H](C(=O)N[C@H](C(=O)N[C@H](CCCCN)C(N)=O)C(c1ccccc1)c1ccccc1)N(C)C(=O)[C@@H]1CSSC[C@H](NC(=O)[C@@H]2CCCN2C(=O)[C@@H](NC(=O)[C@H](Cc2cnc[nH]2)NC(=O)[C@@H](NC(=O)[C@H](CCC(=O)O)NC(=O)CC(C)C)[C@@H](C)O)C(c2ccccc2)c2ccccc2)C(=O)N1 [compound 194] (Isovaleryl-ETH[Dip]PCC[NMeK](X5)[Dip][dK]-NH2; disulfide 6-7)
[1]; [5]
  DC50: 10 to 100 nM
[2]; [6]
  IC50: 1 to 10 nM

## CC(C)CC(=O)N[C@@H](CCC(=O)O)C(=O)N[C@H](C(=O)N[C@@H](Cc1cnc[nH]1)C(=O)N[C@H](C(=O)N1CCC[C@H]1C(=O)N[C@H]1CSSC[C@@H](C(=O)N(C)[C@@H](CCCCNC(=O)COCCOCCNC(=O)COCCOCCNC(=O)C[N+](C)(C)CCNC(=O)CCCCCCCCCCCCCCCCC(=O)O)C(=O)N[C@H](CC(=O)N[C@H](CCCCN)C(N)=O)Cc2ccccc2)NC1=O)C(c1ccccc1)c1ccccc1)[C@@H](C)O [compound 283] (Isovaleryl-ETH[Dip]PCC[NMeK]([AEEA-AEEA-X1])[β3hF][dK]-NH2; disulfide 6-7)
[1]; [3]
  DC50: 10 to 100 nM
[2]; [4]
  IC50: 10 to 100 nM

## CC(C)CC(=O)N[C@@H](CCC(=O)O)C(=O)N[C@H](C(=O)N[C@@H](Cc1c[nH]cn1)C(=O)N[C@H](C(=O)N1CCC[C@H]1C(=O)N[C@H]1CSSC[C@@H](C(=O)N(C)[C@@H](CCCCNC(=O)COCCOCCNC(=O)COCCOCCNC(=O)[C@H](CN)NC(=O)CCCCCCCCCCCCCCCCC(=O)O)C(=O)N[C@H](CC(=O)N[C@H](CCCCN)C(=O)N(C)[C@@H](Cc2ccc(O)cc2)C(N)=O)Cc2ccccc2)NC1=O)C(c1ccccc1)c1ccccc1)[C@@H](C)O [compound 259] (Isovaleryl-ETH[Dip]PCC[NMeK]([AEEA-AEEA-Dap-C18 diacid])[β3hF][dK][NMeY]-NH2; disulfide 6-7)
[1]; [3]
  DC50: 10 to 100 nM
[2]; [4]
  IC50: 10 to 100 nM

## CCCCCCCCCCCCCCCC(=O)NCCCC[C@H]1C(=O)N[C@@H](C(c2ccccc2)c2ccccc2)C(=O)N[C@@H](C(N)=O)CCCCNC(=O)CC[C@H](NC(=O)CC(C)C)C(=O)N[C@@H]([C@@H](C)O)C(=O)N[C@@H](Cc2c[nH]cn2)C(=O)N[C@@H](C(c2ccccc2)c2ccccc2)C(=O)N2CCC[C@H]2C(=O)N[C@H]2CSSC[C@H](NC2=O)C(=O)N1C [compound 142] (Isovaleryl-ETH[Dip]PCC[NMeK](Palmitoyl)[Dip][dK]-NH2; lactam 1-10; disulfide 6-7)
[1]; [5]
  DC50: 1 to 10 nM
[2]; [6]
  IC50: 10 to 100 nM

## CC(C)CC(=O)N[C@@H](CCC(=O)O)C(=O)N[C@H](C(=O)N[C@@H](Cc1c[nH]cn1)C(=O)N[C@H](C(=O)N1CCC[C@H]1C(=O)N[C@H]1CSSCC[C@@H](C(=O)N(C)[C@@H](CCCCNC(=O)COCCOCCNC(=O)COCCOCCNC(=O)[C@H](CN)NC(=O)CCCCCCCCCCCCCCCCC(=O)O)C(=O)N[C@H](CC(=O)N[C@H](CCCCN)C(N)=O)Cc2ccccc2)NC1=O)C(c1ccccc1)c1ccccc1)[C@@H](C)O [compound 270] (Isovaleryl-ETH[Dip]PC[hCys][NMeK]([AEEA-AEEA-Dap-C18 diacid])[β3hF][dK]-NH2; disulfide 6-7)
[1]; [3]
  DC50: 10 to 100 nM
[2]; [4]
  IC50: 10 to 100 nM

## CCCCCCCCCCCCCCCC(=O)NCCCCCC(=O)NCCCC[C@@H](C(=O)NCC(c1ccccc1)c1ccccc1)N(C)C(=O)[C@@H]1CSSC[C@H](NC(=O)[C@@H]2CCCN2C(=O)[C@@H](NC(=O)[C@H](Cc2cnc[nH]2)NC(=O)[C@@H](NC(=O)[C@H](CCC(=O)O)NC(=O)CC(C)C)[C@@H](C)O)C(c2ccccc2)c2ccccc2)C(=O)N1 [compound 163] (Isovaleryl-ETH[Dip]PCC[NMeK]([Ahx-Palmitoyl])-NHCH2CHPh2; disulfide 6-7)
[1]; [5]
  DC50: 10 to 100 nM
[2]; [6]
  IC50: 1 to 10 nM

## CC(C)CC(=O)N[C@@H](CCC(=O)O)C(=O)N[C@H](C(=O)N[C@@H](Cc1cnc[nH]1)C(=O)N[C@H](C(=O)N1CCC[C@H]1C(=O)N[C@H]1CSSC[C@@H](C(=O)N(C)[C@@H](CCCCNC(=O)COCCOCCNC(=O)COCCOCCNC(=O)[C@H](CN)NC(=O)CCCCCCCCCCCCCCCCC(=O)O)C(=O)N[C@H](C(=O)N(C)[C@@H](CCCCN)C(N)=O)C(c2ccccc2)c2ccccc2)NC1=O)C(c1ccccc1)c1ccccc1)[C@@H](C)O [compound 275] (Isovaleryl-ETH[Dip]PCC[NMeK]([AEEA-AEEA-Dap-C18 diacid])[Dip][NMeK]-NH2; disulfide 6-7)
[1]; [3]
  DC50: 10 to 100 nM
[2]; [4]
  IC50: 10 to 100 nM

## COC(=O)CC[C@H](NC(=O)CC(C)C)C(=O)N[C@H](C(=O)N[C@@H](Cc1c[nH]cn1)C(=O)N[C@H](C(=O)N1CCC[C@H]1C(=O)N[C@H]1CSSC[C@@H](C(=O)N(C)[C@@H](CCCCNC(=O)[C@H](CN)NC(=O)CCCCCCCCCCCCCCCCC(=O)O)C(=O)N[C@H](C(=O)N[C@H](CCCCN)C(N)=O)C(c2ccccc2)c2ccccc2)NC1=O)C(c1ccccc1)c1ccccc1)[C@@H](C)O [compound 206] (Isovaleryl-E(OMe)TH[Dip]PCC[NMeK]([Dap-C18 diacid])[Dip][dK]-NH2; disulfide 6-7)
[1]; [5]
  DC50: 10 to 100 nM
[2]; [6]
  IC50: 10 to 100 nM

## CC[C@H](C)[C@@H]1NC(=O)[C@@H](NC(=O)[C@@H]2CCCN2C(=O)[C@@H](NC(=O)[C@H](Cc2c[nH]cn2)NC(=O)[C@@H](NC(=O)[C@H](CCC(=O)O)NC(=O)CC(C)C)[C@@H](C)O)C(c2ccccc2)c2ccccc2)CSSC[C@@H](C(=O)N[C@H](CC(=O)N[C@@H](CCCCNC(=O)COCCOCCNC(=O)COCCOCCNC(=O)CCCCCNC(=O)CCCCCCCCCCCCCCCCC(=O)O)C(=O)N[C@H](CCCCN)C(N)=O)Cc2ccccc2)NC1=O [Compd 27] (Isovaleryl-ETH[Dip]PCIC[β3hF]K([AEEA-AEEA-Ahx-C18 diacid])[dK]-NH2; disulfide 6-8)
[1]; ferroportin-GFP HEK293 cells, at least 18 hours
  DC50: 10 to 100 nM
[2]; T47D cells, 0.5% mouse serum albumin, 1 hr incubation
  IC50: 10 to 100 nM

## CC(C)CC(=O)N[C@@H](CCC(=O)O)C(=O)N[C@H](C(=O)N[C@@H](Cc1c[nH]cn1)C(=O)N[C@H](C(=O)N1CCC[C@H]1C(=O)N[C@H]1CSSC[C@@H](C(=O)N(C)[C@@H](CCCCNC(=O)COCCOCCNC(=O)COCCOCCNC(=O)[C@H](CN)NC(=O)CCCCCCCCCCCCCCCCC(=O)O)C(=O)N[C@H](CC(N)=O)Cc2ccccc2)NC1=O)C(c1ccccc1)c1ccccc1)[C@@H](C)O [compound 295] (Isovaleryl-ETH[Dip]PCC[NMeK]([AEEA-AEEA-Dap-C18 diacid])[β3hF]-NH2; disulfide 6-7)
[1]; [3]
  DC50: 10 to 100 nM
[2]; [4]
  IC50: 10 to 100 nM

## CC[C@H](C)[C@@H](C(N)=O)N(C)C(=O)[C@@H](CCCCN)NC(=O)C[C@H](Cc1ccccc1)NC(=O)[C@H](CCCCNC(=O)COCCOCCNC(=O)COCCOCCNC(=O)[C@H](CN)NC(=O)CCCCCCCCCCCCCCCCC(=O)O)N(C)C(=O)[C@@H]1CSSC[C@H](NC(=O)[C@@H]2CCCN2C(=O)[C@@H](NC(=O)[C@H](Cc2c[nH]cn2)NC(=O)[C@@H](NC(=O)[C@H](CCC(=O)O)NC(=O)CC(C)C)[C@@H](C)O)C(c2ccccc2)c2ccccc2)C(=O)N1 [compound 262] (Isovaleryl-ETH[Dip]PCC[NMeK]([AEEA-AEEA-Dap-C18 diacid])[β3hF][dK][NMeI]-NH2; disulfide 6-7)
[1]; [3]
  DC50: 10 to 100 nM
[2]; [4]
  IC50: 10 to 100 nM
